This is an account of results in patent US12428416B2 (California Institute of Technology, priority 2018, dated 2025).

Molecules are shown by their SMILES.

The target in one experiment is ERK1 (Homo sapiens, UniProt P27361). The experiment can be described thus: ERK1 and 2 Enzymatic Inhibition Assay (ERK1). The note with it: 10 assay concentrations 2×10^−6 M to 6×10^−11 M, 1% DMSO. Type of experiment: biochemical. On the procedure: (§1) ERK1 and 2 Enzymatic Inhibition Assay
(§2) For the Ki determination assay, 200 μM stock solutions of compounds were subjected to a serial, semi-logarithmic dilution using 100% DMSO as a solvent. 10 distinct concentrations were prepared, with a dilution endpoint of 6×10^−9 M in 100% DMSO. 100% DMSO was used as a control. 10 μL from each of the serial dilutions were aliquoted into separate wells of a 96-well plate and 90 μL of water were added to each of those wells. The plate was shaken thoroughly, and 5 μL from each of the plate's wells were transferred into wells of the assay plate. The final volume of wells in the assay plate was 50 μL. All compounds were tested at 10 assay concentrations in the range from 2×10^−6 M to 6×10^−11 M. The final DMSO concentration in the wells of the assay plate was 1% in all cases.

Another experiment has as its target ERK2 (Homo sapiens, UniProt P28482). The experiment can be described thus: ERK1 and 2 Enzymatic Inhibition Assay (ERK2). It is filed as biochemical. The note with it: 10 assay concentrations 2×10^−6 M to 6×10^−11 M, 1% DMSO. On the procedure: as §1, §2
Experiment [1] relates to drug-sensitive cell lines of Table 4. The experiment is described as follows: Cell line growth retardation assay, average over sensitive cohort. The note with it: Homo sapiens, 144 h; geometric mean of IC50s over sensitive cohort (Table 4); 6 days growth; read-out: AvgSens IC50. Type of experiment: cell-based, Human. On the procedure: (§3) Cell Line Growth Retardation Assay
(§4) Cells were seeded at densities of 1,000-5,000 cells per well in 48-well tissue culture plates. After a 24 h rest period, cells were treated with compound at 10 μM, 2 μM, 0.4 μM, 0.08 μM, 0.016 μM, and 0.0032 μM. A group of cells were treated with the vehicle in which the compound was prepared and served as a control. The cells were grown in the presence of compounds for 6 days and were counted on day 0 and day 6. All cell counting was performed using a Synentec Cellavista plate imager. […] Growth inhibition was calculated as a ratio of cell population doublings in the presence of compound versus the absence of compound. […] IC50 values for each compound were calculated by fitting curves to data points from each dose-response assay using the Proc NLIN function in SAS for Windows version 9.2 (SAS Institute, Inc.).
(§5) Designation of Sensitivity and Resistant Cohorts and Calculation of Average IC50 Values
(§6) Human cancer cell lines were grouped as “sensitive” or “resistant” to ERK1 inhibition based on whether their growth was retarded by KO-947 (i.e., 1,5,6,8-tetrahydro-6-(phenylmethyl)-3-(4-pyridinyl)-7H-pyrazolo[4,3-g]quinazolin-7-one) and SCH772984 (i.e., (3R)-1-[2-oxo-2-[4-[4-(2-pyrimidinyl)phenyl]-1-piperazinyl]ethyl]-N-[3-(4-pyridinyl)-1H-indazol-5-yl]-3-pyrrolidinecarboxamide) (data not shown; see Table 4). These sensitive and resistant cohorts were interrogated for response to each compound, and IC50s were calculated for each cell line using the same technique described above. Average IC50s for the sensitive and resistant cohorts were calculated as geometric means of the group.

Experiment [2] relates to drug-resistant cell lines of Table 4. The experiment is described as follows: Cell line growth retardation assay, average over resistant cohort. It is filed as cell-based, Human. Conditions: Homo sapiens, 144 h; geometric mean of IC50s over resistant cohort (Table 4); 6 days growth; read-out: AvgRes IC50. On the procedure:
as §3, §4, §5, §6

Chain of ERK2 (P28482 whole entry): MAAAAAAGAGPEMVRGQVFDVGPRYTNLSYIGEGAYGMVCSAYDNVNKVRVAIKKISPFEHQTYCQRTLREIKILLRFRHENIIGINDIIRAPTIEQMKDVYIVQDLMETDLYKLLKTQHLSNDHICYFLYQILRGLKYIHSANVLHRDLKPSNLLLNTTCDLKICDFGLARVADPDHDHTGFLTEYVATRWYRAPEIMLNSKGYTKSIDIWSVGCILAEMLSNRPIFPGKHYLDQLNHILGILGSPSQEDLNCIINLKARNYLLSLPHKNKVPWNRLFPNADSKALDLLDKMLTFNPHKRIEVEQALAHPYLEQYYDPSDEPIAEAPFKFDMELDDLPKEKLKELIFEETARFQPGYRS
Chain of ERK1 (P27361 whole entry): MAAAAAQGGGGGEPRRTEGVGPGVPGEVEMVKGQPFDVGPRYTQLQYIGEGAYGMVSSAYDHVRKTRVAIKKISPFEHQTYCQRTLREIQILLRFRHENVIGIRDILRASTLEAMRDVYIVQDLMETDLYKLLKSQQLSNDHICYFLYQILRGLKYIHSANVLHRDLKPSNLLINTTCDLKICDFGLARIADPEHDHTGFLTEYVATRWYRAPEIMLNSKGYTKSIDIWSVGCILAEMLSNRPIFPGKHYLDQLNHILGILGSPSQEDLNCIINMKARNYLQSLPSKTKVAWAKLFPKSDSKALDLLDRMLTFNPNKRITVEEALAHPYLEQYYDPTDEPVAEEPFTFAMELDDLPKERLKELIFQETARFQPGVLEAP

As for `CN(C)CC(NC(=O)c1ncc(-c2c[nH]c3ncc(N4CCOCC4)cc23)cn1)c1ccccc1` (stereo in doubt) [Compound 57, (S)—N-(2-(dimethylamino)-1-phenylethyl)-5-(5-morpholino-1H-pyrrolo[2,3-b]pyridin-3-yl)pyrimidine-2-carboxamide], the Kd at ERK1 and on ERK2 was greater than 100 nM each time. In addition, the IC50 in experiment [1] and in experiment [2] was greater than 500 nM each time.

With `CC(NC(=O)c1ncc(-c2c[nH]c3ncc(Br)cc23)cn1)c1ccccc1` (stereo in doubt) [Compound 67, (R)-5-(5-bromo-1H-pyrrolo[2,3-b]pyridin-3-yl)-N-(1-phenylethyl)pyrimidine-2-carboxamide], the Kd on ERK1 and at ERK2 was 11 to 100 nM in each case. Besides, the IC50 in experiment [1] and in experiment [2] was greater than 500 nM each time.

Take `O=C(NCc1ccccc1)c1ncc(-c2c[nH]c3ncc(N4CCOCC4)cc23)cn1` [Compound 7, N-benzyl-5-(5-morpholino-1H-pyrrolo[2,3-b]pyridin-3-yl)pyrimidine-2-carboxamide]: the Kd is no more than 10 nM at ERK1 and 11 to 100 nM at ERK2. Also, the IC50 in experiment [1] and in experiment [2] was greater than 500 nM throughout.

As for `CN(Cc1ccccc1)C(=O)c1ncc(-c2c[nH]c3ncc(N4CCOCC4)cc23)cn1` [Compound 8, N-benzyl-N-methyl-5-(5-morpholino-1H-pyrrolo[2,3-b]pyridin-3-yl)pyrimidine-2-carboxamide], the Kd on ERK1 and on ERK2 was greater than 100 nM each time. For the same molecule, the IC50 in experiment [1] and in experiment [2] was greater than 500 nM in each case.

For `O=C(NCCc1ccccc1)c1ccc(-c2c[nH]c3ncc(N4CCOCC4)cc23)nc1` [Compound 9, 6-(5-morpholino-1H-pyrrolo[2,3-b]pyridin-3-yl)-N-phenethylnicotinamide], the dissociation constant (Kd) at ERK1 and at ERK2 was greater than 100 nM throughout. For the same molecule, the IC50 in experiment [1] and in experiment [2] was greater than 500 nM in each case.

Consider `O=C(NCc1ccc(C(F)(F)F)cc1)c1ncc(-c2c[nH]c3ncc(N4CCOCC4)cc23)cn1` [Compound 10, 5-(5-morpholino-1H-pyrrolo[2,3-b]pyridin-3-yl)-N-(4-(trifluoromethyl)benzyl)pyrimidine-2-carboxamide], for which the Kd at ERK1 and on ERK2 was greater than 100 nM in each case. Moreover, the IC50 in experiment [1] and in experiment [2] was greater than 500 nM in each case.

For `O=C(NCCc1ccccc1)c1ccc(-c2c[nH]c3ncc(N4CCOCC4)cc23)nn1` [Compound 13, 6-(5-morpholino-1H-pyrrolo[2,3-b]pyridin-3-yl)-N-phenethylpyridazine-3-carboxamide], the Kd is 11 to 100 nM at ERK1 and greater than 100 nM at ERK2. The IC50 in experiment [1] and in experiment [2] was greater than 500 nM throughout.

Turning to `c1ccc([C@H]2CN=C(c3ncc(-c4c[nH]c5ncc(N6CCOCC6)cc45)cn3)N2)cc1` [Compound 15, (S)-4-(3-(2-(5-phenyl-4,5-dihydro-1H-imidazol-2-yl)pyrimidin-5-yl)-1H-pyrrolo[2,3-b]pyridin-5-yl)morpholine], the Kd at ERK1 and at ERK2 was 11 to 100 nM each time. The IC50 in experiment [1] and in experiment [2] was greater than 500 nM throughout.

For `C[C@H](c1ccccc1)N(C)C(=O)c1ncc(-c2c[nH]c3ncc(N4CCOCC4)cc23)cn1` [Compound 17], the Kd at ERK1 and at ERK2 was 11 to 100 nM in each case. Besides, the IC50 in experiment [1] and in experiment [2] was greater than 500 nM throughout.

With `O=C(c1ncc(-c2c[nH]c3ncc(N4CCOCC4)cc23)cn1)N1CCC[C@@H]1c1ccccc1` [Compound 18, (R)-(5-(5-morpholino-1H-pyrrolo[2,3-b]pyridin-3-yl)pyrimidin-2-yl)(2-phenylpyrrolidin-1-yl)methanone], the Kd at ERK1 and at ERK2 was 11 to 100 nM throughout. In addition, the IC50 in experiment [1] and in experiment [2] was greater than 500 nM throughout.

As to `O=C(c1ncc(-c2c[nH]c3ncc(N4CCOCC4)cc23)cn1)N1CCC[C@H]1c1ccccc1` [Compound 19, (S)-(5-(5-morpholino-1H-pyrrolo[2,3-b]pyridin-3-yl)pyrimidin-2-yl)(2-phenylpyrrolidin-1-yl)methanone], the Kd at ERK1 and on ERK2 was greater than 100 nM each time. Further, the IC50 in experiment [1] and in experiment [2] was greater than 500 nM in each case.

Turning to `C[C@@H](NC(=O)c1ncc(-c2c[nH]c3ncc(N4CCOCC4)cc23)cn1)c1cccc(C(F)(F)F)c1` [Compound 21, (R)-5-(5-morpholino-1H-pyrrolo[2,3-b]pyridin-3-yl)-N-(1-(3-(trifluoromethyl)phenyl)ethyl)pyrimidine-2-carboxamide], the Kd at ERK1 was no more than 10 nM; at ERK2 it was 11 to 100 nM. Moreover, the IC50 in experiment [1] is 251 to 500 nM; in experiment [2], greater than 500 nM.

For the molecule `CC(NC(=O)c1ncc(-c2c[nH]c3ncc(N4CCOCC4)cc23)cn1)c1ccn(C)c1` (centres unmarked) [Compound 24, N-(1-(1-methyl-1H-pyrrol-3-yl)ethyl)-5-(5-morpholino-1H-pyrrolo[2,3-b]pyridin-3-yl)pyrimidine-2-carboxamide], the Kd at ERK1 and at ERK2 was 11 to 100 nM throughout. The IC50 in experiment [1] and in experiment [2] was greater than 500 nM each time.

`C[C@H](CNC(=O)c1ncc(-c2c[nH]c3ncc(N4CCOCC4)cc23)cn1)c1ccccc1` [Compound 32]: the Kd at ERK1 and on ERK2 was no more than 10 nM throughout. For the same molecule, the IC50 in experiment [1] is 251 to 500 nM; in experiment [2] it was greater than 500 nM.

Consider `C[C@H](NC(=O)c1ncc(-c2c[nH]c3ncc(-c4ccncc4)cc23)cn1)c1ccccc1` [Compound 39, (S)—N-(1-phenylethyl)-5-(5-(pyridin-4-yl)-1H-pyrrolo[2,3-b]pyridin-3-yl)pyrimidine-2-carboxamide], for which the Kd on ERK1 and at ERK2 was no more than 10 nM throughout. In addition, the IC50 was no more than 250 nM in experiment [1] and greater than 500 nM in experiment [2].

`C[C@H](NC(=O)c1ncc(-c2c[nH]c3ncc(N4CCOCC4)cc23)cn1)c1ccccc1F` [Compound 44, (S)—N-(1-(2-fluorophenyl)ethyl)-5-(5-morpholino-1H-pyrrolo[2,3-b]pyridin-3-yl)pyrimidine-2-carboxamide]: the Kd on ERK1 and on ERK2 was no more than 10 nM throughout. Moreover, the IC50 in experiment [1] was no more than 250 nM; in experiment [2] it was greater than 500 nM.

In the case of `C[C@H](NC(=O)c1ncc(-c2c[nH]c3ncc(N4CCOCC4)cc23)cn1)c1ccccc1Cl` [Compound 45, (S)—N-(1-(2-chlorophenyl)ethyl)-5-(5-morpholino-1H-pyrrolo[2,3-b]pyridin-3-yl)pyrimidine-2-carboxamide], the Kd at ERK1 and at ERK2 was no more than 10 nM each time. For the same molecule, the IC50 in experiment [1] was no more than 250 nM; in experiment [2] it was greater than 500 nM.

On to `COc1ccccc1[C@H](C)NC(=O)c1ncc(-c2c[nH]c3ncc(N4CCOCC4)cc23)cn1` [Compound 46, (S)—N-(1-(2-methoxyphenyl)ethyl)-5-(5-morpholino-1H-pyrrolo[2,3-b]pyridin-3-yl)pyrimidine-2-carboxamide], for which the Kd at ERK1 and on ERK2 was no more than 10 nM throughout. Moreover, the IC50 in experiment [1] was 251 to 500 nM; in experiment [2], greater than 500 nM.

Regarding `O=C(NC(c1ccccc1)C1CC1)c1ncc(-c2c[nH]c3ncc(N4CCOCC4)cc23)cn1` (centres unmarked) [Compound 49, N-(cyclopropyl(phenyl)methyl)-5-(5-morpholino-1H-pyrrolo[2,3-b]pyridin-3-yl)pyrimidine-2-carboxamide], the dissociation constant Kd at ERK1 and at ERK2 was no more than 10 nM each time. Also, the IC50 in experiment [1] is 251 to 500 nM; in experiment [2], greater than 500 nM.

Turning to `CCN1C[C@H](c2ccccc2)N=C1c1ncc(-c2c[nH]c3ncc(N4CCOCC4)cc23)cn1` [Compound 51, (S)-4-(3-(2-(1-ethyl-4-phenyl-4,5-dihydro-1H-imidazol-2-yl)pyrimidin-5-yl)-1H-pyrrolo[2,3-b]pyridin-5-yl)morpholine], the Kd at ERK1 and on ERK2 was 11 to 100 nM each time. Further, the IC50 in experiment [1] is 251 to 500 nM; in experiment [2], greater than 500 nM.

One may read the Kd as the constant that tells how readily two partners part at equilibrium. The low end stands for a tighter complex, the high end for a looser complex. Broadly, the IC50 is the midpoint of a concentration-inhibition curve.
